In patent US11844847B2, “Sulfur-containing polymerizable monomer and use thereof” (SUN MEDICAL CO., LTD., priority 2018, dated 2023):

Experiment: Solubility evaluation: solution stirred 0.5 hours, visually inspected for insolubles
Format: physicochemical
Experimental: Solutions were obtained by adding the sulfur-containing compound of the amount described in Table 1 or Table 1a to the amount described in Table 1 or Table 1a of the organic solvent or the radically polymerizable monomer.
The solutions obtained were stirred with a magnetic stirrer for 0.5 hours and were then visually inspected for the presence of insolubles. The solutions were evaluated as ◯ when the solution was transparent and free from insolubles, as Δ when the solution was turbid but free from insolubles, and as x when insolubles were present. The solubility evaluations in Tables 3 to 6 are also based on the same criteria.

[1] = 2.6 parts sulfur-containing compound in 97.4 parts IPA
[2] = 2.6 parts sulfur-containing compound in 97.4 parts MMA
[3] = 2.6 parts sulfur-containing compound in 97.4 parts acetone
[4] = 0.65 parts sulfur-containing compound in 99.35 parts IPA
[5] = 20 parts sulfur-containing compound in 80 parts acetone
[6] = added to acetone at a concentration of 20 mass %

In the case of `C=C(C)C(=O)OCCOC(=O)CCC1NC(=S)NC1=O` (stereo not drawn) [2-THPEM, 2-((3-(5-oxo-2-thioxoimidazolidin-4-yl)propanoyl)oxy)ethyl methacrylate], the Solubility [1] was “∘”, the Solubility [2] was “∘” and the Solubility [3] was “∘”.

In the case of `C=C(C)C(=O)OCCCCOC(=O)CCC1NC(=S)NC1=O` (stereo not drawn) [4-THPBM, 4-((3-(5-oxo-2-thioxoimidazolidin-4-yl)propanoyl)oxy)butyl methacrylate], the Solubility [1] was “∘”, the Solubility [2] was “∘” and the Solubility [3] was “∘”.

With `C=C(C)C(=O)OCCCCCCOC(=O)CCC1NC(=S)NC1=O` (stereo not drawn) [6-THPHM, 6-((3-(5-oxo-2-thioxoimidazolidin-4-yl)propanoyl)oxy)hexyl methacrylate] the Solubility [1] was “∘”, the Solubility [2] was “∘” and the Solubility [3] was “∘”.

In the case of `C=C(C)C(=O)OCCCCCCCCCCOC(=O)CCC1NC(=S)NC1=O` (stereo not drawn) [10-THPDM, 10-((3-(5-oxo-2-thioxoimidazolidin-4-yl)propanoyl)oxy)decyl methacrylate], the Solubility [4] was “∘”, the Solubility (0.65 parts sulfur-containing compound in 99.35 parts MMA) was “∘” and the Solubility (0.65 parts sulfur-containing compound in 99.35 parts acetone) was “∘”. For the same compound, the Solubility [1] was “∘”, the Solubility [2] was “∘” and the Solubility [3] was “∘”. For the same compound, the Solubility [5] was “∘” and the “solubility (in words)” value [6] was “dissolved completely”.

In the case of `C=Cc1ccc(CN(CCC)c2nc(=S)[nH]c(=S)[nH]2)cc1` [VBATDT, 6-(4-Vinylbenzyl-n-propyl)amino-1,3,5-triazine-2,4-dithione, reference compound], the Solubility (0.5 parts sulfur-containing compound in 99.5 parts acetone) was “∘”, the Solubility [3] was “∘” and the “solubility (in words)” value [6] was “generated insolubles”. The “solubility (in words)” value (with respect to IPA and MMA) was “low solubility”.

For `C=C(C)C(=O)OCCCCCCC1NC(=S)NC1=O` (stereo not drawn) [a20, 6-(5-oxo-2-thioxoimidazolidin-4-yl)hexyl methacrylate], the Solubility [1] was “∘”, the Solubility [2] was “∘” and the Solubility [5] was “∘”.

In the case of `C=C(C)C(=O)OCCCCCC=C1NC(=S)NC1=O` [a21, 6-(5-oxo-2-thioxoimidazolidin-4-ylidene)hexyl methacrylate], the Solubility [4] was “∘”, the Solubility [2] was “∘” and the Solubility (10 parts sulfur-containing compound in 90 parts acetone) was “∘”.

For `C=C(C)C(=O)OCCCCCCCC=C1NC(=S)NC1=O` [a23, 8-(5-oxo-2-thioxoimidazolidin-4-ylidene)octyl methacrylate], the Solubility [1] was “∘”, the Solubility [2] was “∘” and the Solubility [5] was “∘”.

In the case of `C=C(C)C(=O)OCCCCCCCCCCC1NC(=S)NC1=O` (stereo not drawn) [a24, 10-(5-oxo-2-thioxoimidazolidin-4-yl)decyl methacrylate], the Solubility [1] was “∘”, the Solubility [2] was “∘” and the Solubility [5] was “∘”.

In the case of `C=C(C)C(=O)OCCCCCCCCCC=C1NC(=S)NC1=O` [a25, 10-(5-oxo-2-thioxoimidazolidin-4-ylidene)decyl methacrylate], the Solubility [1] was “∘”, the Solubility [2] was “∘” and the Solubility [5] was “∘”.
